Structures are written as SMILES. ± gives the expanded uncertainty stated by the source.

For one data set the following is noted: 293.15 K; 100 kPa; Liquid; Vibrating tube method.
The mass density is mass per unit of volume. With `CC[NH+](CC)CC.O=S(=O)([O-])C(F)(F)F` [triethylammonium trifluoromethanesulfonate], the mass density worked out at 1268.63 ± 11 kg/m3.

Take `CCN(CC)CC.O=C(O)c1ccccc1O` [triethylammonium salicylate]: the mass density is 1099.07 ± 8.5 kg/m3.

Turning to `CC[NH2+]CC.O=S(=O)([O-])O` [diethylammonium hydrogen sulfate], the mass density is on record as 1382.76 ± 13 kg/m3.

Consider `CC(=O)O.CCN(CC)CC` [triethylammonium acetate], for which the mass density is given as 1013.29 ± 7.2 kg/m3.

`CC[NH+](C)C.O=C([O-])C(F)(F)F` [N,N-dimethyl-N-ethylammonium trifluoroacetate]: the mass density was determined as 1212.41 ± 10 kg/m3.

For `CC[NH+](CC)CC.O=C([O-])C(F)(F)F` [triethylammonium trifluoroacetate], the mass density is listed as 1165.69 ± 9.5 kg/m3.

Turning to `CC[NH+](CC)CC.O=C([O-])c1ccccc1` [triethylammonium benzoate], the mass density is recorded as 1101.47 ± 8.5 kg/m3.

Regarding `CC[NH+](CC)CC.CS(=O)(=O)[O-]` [triethylammonium methanesulfonate], the mass density was 1120.47 ± 8.8 kg/m3.

Turning to `CCC(=O)[O-].OCC[NH+](CCO)CCO` [triethanolammonium propanoate], the mass density stood at 1139.53 ± 7 kg/m3.

Still in this data set, the particulars now being: 298.15 K; 100 kPa; Liquid; Vibrating tube method.
As for `CC[NH+](CC)CC.O=S(=O)([O-])C(F)(F)F` [triethylammonium trifluoromethanesulfonate], the mass density turned out to be 1264.56 ± 11 kg/m3.

As for `CCN(CC)CC.O=C(O)c1ccccc1O` [triethylammonium salicylate], the mass density was 1095.79 ± 8.4 kg/m3.

Consider `CC[NH2+]CC.O=S(=O)([O-])O` [diethylammonium hydrogen sulfate], for which the mass density came to 1379.53 ± 13 kg/m3.

Take `CC(=O)O.CCN(CC)CC` [triethylammonium acetate]: the mass density was 1009.63 ± 7.1 kg/m3.

`CC[NH+](C)C.O=C([O-])C(F)(F)F` [N,N-dimethyl-N-ethylammonium trifluoroacetate]: the mass density was 1208.11 ± 10 kg/m3.

Turning to `CC[NH+](CC)CC.O=C([O-])C(F)(F)F` [triethylammonium trifluoroacetate], the mass density was determined as 1161.57 ± 9.5 kg/m3.

Consider `CC[NH+](CC)CC.O=C([O-])c1ccccc1` [triethylammonium benzoate], for which the mass density is reported as 1098.02 ± 8.4 kg/m3.

Consider `CC[NH+](CC)CC.CS(=O)(=O)[O-]` [triethylammonium methanesulfonate], for which the mass density is on record as 1117.11 ± 8.7 kg/m3.

For the compound `CCC(=O)[O-].OCC[NH+](CCO)CCO` [triethanolammonium propanoate], the mass density is 1136.51 ± 7 kg/m3.

Staying with this data set, now noted: 303.15 K; 100 kPa; Liquid; Vibrating tube method.
`CC[NH+](CC)CC.O=S(=O)([O-])C(F)(F)F` [triethylammonium trifluoromethanesulfonate]: the mass density came to 1260.51 ± 11 kg/m3.

As to `CCN(CC)CC.O=C(O)c1ccccc1O` [triethylammonium salicylate], the mass density is recorded as 1092.57 ± 8.3 kg/m3.

Regarding `CC[NH2+]CC.O=S(=O)([O-])O` [diethylammonium hydrogen sulfate], the mass density is on record as 1376.33 ± 13 kg/m3.

With `CC(=O)O.CCN(CC)CC` [triethylammonium acetate], the mass density amounted to 1005.87 ± 7 kg/m3.

As for `CC[NH+](C)C.O=C([O-])C(F)(F)F` [N,N-dimethyl-N-ethylammonium trifluoroacetate], the mass density turned out to be 1203.82 ± 10 kg/m3.

As for `CC[NH+](CC)CC.O=C([O-])C(F)(F)F` [triethylammonium trifluoroacetate], the mass density was determined as 1157.44 ± 9.4 kg/m3.

For `CC[NH+](CC)CC.O=C([O-])c1ccccc1` [triethylammonium benzoate], the mass density is 1094.65 ± 8.4 kg/m3.

Consider `CC[NH+](CC)CC.CS(=O)(=O)[O-]` [triethylammonium methanesulfonate], for which the mass density amounted to 1113.77 ± 8.7 kg/m3.

As to `CCC(=O)[O-].OCC[NH+](CCO)CCO` [triethanolammonium propanoate], the mass density is on record as 1133.47 ± 7 kg/m3.

Still in this data set, the particulars now being: 308.15 K; 100 kPa; Liquid; Vibrating tube method.
As to `CC[NH+](CC)CC.O=S(=O)([O-])C(F)(F)F` [triethylammonium trifluoromethanesulfonate], the mass density turned out to be 1256.47 ± 11 kg/m3.

In the case of `CCN(CC)CC.O=C(O)c1ccccc1O` [triethylammonium salicylate], the mass density is 1089.33 ± 8.3 kg/m3.

Turning to `CC[NH2+]CC.O=S(=O)([O-])O` [diethylammonium hydrogen sulfate], the mass density came to 1373.15 ± 13 kg/m3.

With `CC(=O)O.CCN(CC)CC` [triethylammonium acetate], the mass density stood at 1002.1 ± 7 kg/m3.

In the case of `CC[NH+](C)C.O=C([O-])C(F)(F)F` [N,N-dimethyl-N-ethylammonium trifluoroacetate], the mass density is 1199.56 ± 10 kg/m3.

Consider `CC[NH+](CC)CC.O=C([O-])C(F)(F)F` [triethylammonium trifluoroacetate], for which the mass density came to 1153.32 ± 9.3 kg/m3.

`CC[NH+](CC)CC.O=C([O-])c1ccccc1` [triethylammonium benzoate]: the mass density is reported as 1091.27 ± 8.3 kg/m3.

As to `CC[NH+](CC)CC.CS(=O)(=O)[O-]` [triethylammonium methanesulfonate], the mass density was determined as 1110.44 ± 8.6 kg/m3.

In the case of `CCC(=O)[O-].OCC[NH+](CCO)CCO` [triethanolammonium propanoate], the mass density was 1130.43 ± 6.9 kg/m3.

The data set is the same for the next values; noted with them: 313.15 K; 100 kPa; Liquid; Vibrating tube method.
For `CC[NH+](CC)CC.O=S(=O)([O-])C(F)(F)F` [triethylammonium trifluoromethanesulfonate], the mass density is listed as 1252.45 ± 11 kg/m3.

`CCN(CC)CC.O=C(O)c1ccccc1O` [triethylammonium salicylate]: the mass density was found to be 1086.08 ± 8.2 kg/m3.

For the compound `CC[NH2+]CC.O=S(=O)([O-])O` [diethylammonium hydrogen sulfate], the mass density is 1369.99 ± 13 kg/m3.

In the case of `CC(=O)O.CCN(CC)CC` [triethylammonium acetate], the mass density was 998.33 ± 6.9 kg/m3.

Consider `CC[NH+](C)C.O=C([O-])C(F)(F)F` [N,N-dimethyl-N-ethylammonium trifluoroacetate], for which the mass density came out at 1195.28 ± 10 kg/m3.

On to `CC[NH+](CC)CC.O=C([O-])C(F)(F)F` [triethylammonium trifluoroacetate], for which the mass density was 1149.21 ± 9.3 kg/m3.

Take `CC[NH+](CC)CC.O=C([O-])c1ccccc1` [triethylammonium benzoate]: the mass density came to 1087.87 ± 8.3 kg/m3.

`CC[NH+](CC)CC.CS(=O)(=O)[O-]` [triethylammonium methanesulfonate]: the mass density stood at 1107.13 ± 8.6 kg/m3.

Take `CCC(=O)[O-].OCC[NH+](CCO)CCO` [triethanolammonium propanoate]: the mass density is on record as 1127.31 ± 6.9 kg/m3.

The data set is the same for the next values; noted with them: 318.15 K; 100 kPa; Liquid; Vibrating tube method.
On to `CC[NH+](CC)CC.O=S(=O)([O-])C(F)(F)F` [triethylammonium trifluoromethanesulfonate], for which the mass density is 1248.45 ± 11 kg/m3.

`CCN(CC)CC.O=C(O)c1ccccc1O` [triethylammonium salicylate]: the mass density amounted to 1082.83 ± 8.2 kg/m3.

Consider `CC[NH2+]CC.O=S(=O)([O-])O` [diethylammonium hydrogen sulfate], for which the mass density turned out to be 1366.85 ± 13 kg/m3.

Take `CC(=O)O.CCN(CC)CC` [triethylammonium acetate]: the mass density was determined as 994.55 ± 6.9 kg/m3.

Take `CC[NH+](C)C.O=C([O-])C(F)(F)F` [N,N-dimethyl-N-ethylammonium trifluoroacetate]: the mass density was 1191.03 ± 10 kg/m3.

`CC[NH+](CC)CC.O=C([O-])C(F)(F)F` [triethylammonium trifluoroacetate]: the mass density is recorded as 1145.1 ± 9.2 kg/m3.

In the case of `CC[NH+](CC)CC.O=C([O-])c1ccccc1` [triethylammonium benzoate], the mass density was 1084.47 ± 8.2 kg/m3.

On to `CC[NH+](CC)CC.CS(=O)(=O)[O-]` [triethylammonium methanesulfonate], for which the mass density is 1103.83 ± 8.5 kg/m3.

In the case of `CCC(=O)[O-].OCC[NH+](CCO)CCO` [triethanolammonium propanoate], the mass density was 1124.25 ± 6.9 kg/m3.

The same data set, now with this note: 323.15 K; 100 kPa; Liquid; Vibrating tube method.
For `CC[NH+](CC)CC.O=S(=O)([O-])C(F)(F)F` [triethylammonium trifluoromethanesulfonate], the mass density worked out at 1244.46 ± 11 kg/m3.

Take `CC[NH2+]CC.O=C([O-])C(F)(F)F` [diethylammonium trifluoroacetate]: the mass density is 1158.82 ± 9.4 kg/m3.

`CCN(CC)CC.O=C(O)c1ccccc1O` [triethylammonium salicylate]: the mass density is on record as 1079.58 ± 8.2 kg/m3.

Take `CC[NH2+]CC.O=S(=O)([O-])O` [diethylammonium hydrogen sulfate]: the mass density was determined as 1363.73 ± 13 kg/m3.

With `CC(=O)O.CCN(CC)CC` [triethylammonium acetate], the mass density worked out at 990.75 ± 6.8 kg/m3.

On to `O=S(=O)(O)O.OCCN(CCO)CCO` [triethanolammonium hydrogen sulfate], for which the mass density was determined as 1421.3 ± 14 kg/m3.

With `CC[NH+](C)C.O=C([O-])C(F)(F)F` [N,N-dimethyl-N-ethylammonium trifluoroacetate], the mass density turned out to be 1186.78 ± 9.9 kg/m3.

Take `CC[NH+](CC)CC.O=C([O-])C(F)(F)F` [triethylammonium trifluoroacetate]: the mass density came to 1141 ± 9.1 kg/m3.

In the case of `CC[NH+](CC)CC.O=C([O-])c1ccccc1` [triethylammonium benzoate], the mass density is recorded as 1081.07 ± 8.2 kg/m3.

Take `CC[NH+](CC)CC.CS(=O)(=O)[O-]` [triethylammonium methanesulfonate]: the mass density is 1100.54 ± 8.5 kg/m3.

On to `CCC(=O)[O-].OCC[NH+](CCO)CCO` [triethanolammonium propanoate], for which the mass density is reported as 1121.15 ± 6.8 kg/m3.

Staying with this data set, now noted: 328.15 K; 100 kPa; Liquid; Vibrating tube method.
Take `CC[NH+](CC)CC.O=S(=O)([O-])C(F)(F)F` [triethylammonium trifluoromethanesulfonate]: the mass density turned out to be 1240.48 ± 11 kg/m3.

As to `CC[NH2+]CC.O=C([O-])C(F)(F)F` [diethylammonium trifluoroacetate], the mass density is 1154.74 ± 9.3 kg/m3.

With `CCN(CC)CC.O=C(O)c1ccccc1O` [triethylammonium salicylate], the mass density is listed as 1076.35 ± 8.1 kg/m3.

`CC[NH2+]CC.O=S(=O)([O-])O` [diethylammonium hydrogen sulfate]: the mass density is 1360.62 ± 13 kg/m3.

Take `CC(=O)O.CCN(CC)CC` [triethylammonium acetate]: the mass density was 986.96 ± 6.8 kg/m3.

Consider `O=C(O)c1ccccc1O.OCCN(CCO)CCO` [triethanolammonium salicylate], for which the mass density stood at 1248.43 ± 11 kg/m3.

Regarding `O=S(=O)(O)O.OCCN(CCO)CCO` [triethanolammonium hydrogen sulfate], the mass density was 1418.8 ± 14 kg/m3.

Regarding `CC[NH+](C)C.O=C([O-])C(F)(F)F` [N,N-dimethyl-N-ethylammonium trifluoroacetate], the mass density was found to be 1182.54 ± 9.8 kg/m3.

The record behind these values is the NIST ThermoML archive (doi:10.1021/acs.jced.8b00725).
